# Literature values in patent US20100055163A1, “FORMULATION OF NATURAL T[…] […] FROM THE GENUS OLEA IN LIPOSOMES” (UNIVERSIDAD DE GRANADA, priority 2006, published 2010).
# How the values were obtained:
# [1] = system: membrane hepatocyte lipid peroxidation (LPO); conditions: rats
# [2] = system: acquired immunodeficiency virus; conditions: acts intracellularly
# [3] = biological target: HIV-1 protease (Human immunodeficiency virus type 1 group M subtype B, UniProt P04585)
# [4] = system: parasites of the genus Cryptosporidium; design: dose or concentration left out as unconfirmed; conditions: MDCK cell lines
# [5] = system: rainbow trout; conditions: added to feed
smiles,measurement,setting,value
"CC1(C)CC[C@]2(C(=O)O)CC[C@]3(C)C(=CC[C@@H]4[C@@]5(C)C[C@@H](O)[C@H](O)C(C)(C)[C@@H]5CC[C@]43C)[C@@H]2C1 [maslinic acid, 2-alpha, 3-beta-dihydroxy-28-carboxy-oleanene]",lipoperoxide levels and membrane hepatocyte susceptibility to lipid peroxidation (LPO),[1],reduces lipoperoxide levels and membrane hepatocyte susceptibility to lipid peroxidation (LPO)
same,exit of the virus from the infected cell towards the medium,[2],considerably inhibits
same,inhibiting activity in vitro of HIV-1 protease,[3],powerful inhibiting activity
same,infection inhibition percentage,[4],92.3%
same,hepatic organ and function,[5],significant improvement of the hepatic organ and function
